Results on 2 substances are retold here after article PMC13080237, “Functional divergence of protein kinase A regulatory subunit Iβ variants: the importance of N3A motifs in PKA regulation” (The Febs Journal, 2025).

The target of test [1] is GFP2 fusion of human PKA Cα (BRET acceptor) (human) (UniProt P17612). Kind of test: FRET or BRET; BRET2 in living HEK293 cells; RLuc8 fused to the R subunit, GFP2 fused to the C subunit; 37 °C, HBSS w/o Mg2+/Ca2+ pH 7.4, coelenterazine 400a; time courses and end points (20 min); cells treated with buffer, 100 nM isoproterenol, or 50 uM forskolin + 100 uM IBMX. In general terms: BRET reads energy transfer from a luciferase to a nearby fluorophore.

Test [2] deals with T1, RIβ (RIβ A268; His-RIβ) (Homo sapiens, UniProt P31321, A268R).
T1 construct: gene PRKAR1B; full-length, N-terminal His-tag (pQTEV vector), E. coli TP2000 cells, Ni-NTA; dimer; 380 residues as printed
T1 sequence (P31321 2-381 A268R): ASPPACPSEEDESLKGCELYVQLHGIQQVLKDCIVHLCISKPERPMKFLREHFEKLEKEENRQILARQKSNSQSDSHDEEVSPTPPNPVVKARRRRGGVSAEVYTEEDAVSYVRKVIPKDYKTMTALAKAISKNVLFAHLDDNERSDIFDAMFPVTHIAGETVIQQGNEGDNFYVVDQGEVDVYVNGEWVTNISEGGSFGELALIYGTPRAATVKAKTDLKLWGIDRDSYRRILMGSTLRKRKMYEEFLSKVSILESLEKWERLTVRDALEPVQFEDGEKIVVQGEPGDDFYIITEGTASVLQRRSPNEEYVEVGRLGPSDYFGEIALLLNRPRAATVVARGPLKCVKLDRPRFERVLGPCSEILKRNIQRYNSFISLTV
Kind of test: fluorescence polarization, direct titration. The conditions noted are these: labelled compound; 0.5 nM 8-Fluo-cAMP, RIβ R268 dilution series; 20 mM MOPS pH 7.4, 150 mM NaCl, room temperature; residue 268 in bovine RIα numbering (270 in human RIβ); read-out: affinity. It is filed as binding. A general note: Fluorescence polarisation rises when a labelled molecule tumbles more slowly, as on binding a larger partner.

Test [3] addresses T2, RIβ (RIβ A268; His-RIβ) (Homo sapiens, UniProt P31321).
T2 construct: gene PRKAR1B; full-length, N-terminal His-tag (pQTEV vector), E. coli TP2000 cells, Ni-NTA; dimer; 380 residues as printed
Kind of test: fluorescence polarization, direct titration. It is filed as binding. The settings on record: labelled compound; 0.5 nM 8-Fluo-cAMP, RIβ dilution series; 20 mM MOPS pH 7.4, 150 mM NaCl, room temperature; read-out: affinity.

T2 sequence (P31321 2-381): as the sequence (P31321 2-381 A268R) above, with R267A counted along it

Regarding “RLuc8 fusion of human RIβ R268 (BRET donor) (natural protein)”, the maximal cAMP-induced dissociation of the holoenzyme (%) in test [1] amounted to 30%.
With “8‐(2‐[fluoresceinyl]aminoethylthio)‐cAMP [8-Fluo-cAMP]”, the Kd at RIβ (RIβ A268; His-RIβ) [2] and at RIβ (RIβ A268; His-RIβ) [3] was 4 nM throughout.
